Measured values published in US20250121083A1, “Tumor-Associated Calcium Signal Transducer 2 (TACSTD2) Antibody-Maytansine Conjugates and Methods of Use Thereof” (priority 2021, published 2025).

Experiments:
NCI-H292 xenograft model = test: NCI-H292 xenograft study; assay type: in vivo, female SCID Beige mice; conditions: 26 mg/kg x 4 doses, i.v.; 8 mice per group
Description: Methods: For the NCI-H292 study, female SCID Beige mice (8 per group) were inoculated subcutaneously with 5 million NCI-H292 cells in PBS. Treatment began when the tumors reached an average of 116 mm^3. For the NCI-N87 study, female BALB/c nude mice (8 per group) were inoculated subcutaneously with 10 million NCI-N87 cells in a 1:1 solution of PBS:Matrigel. Treatment began when the tumors reached an average of 221 mm^3. […] Two general dosing schedules were used: either test articles were delivered once every 3 wk (arrowheads) or they were delivered two times in a three week period, on days 0 and 7 (arrows). The dosing cycles were repeated twice, so that animals in the first dosing group received a total of 2 doses, while the animals in the second dosing group received a total of 4 doses. The animals were monitored twice weekly for body weight and tumor size. Animals were euthanized when tumors reached 2000 mm^3.
For the results shown in FIG. 8, CR refers to an individual mouse that has no detectable tumor volume, which could be for only a short time, for example, one observation, or it could be for a longer period. […] The lines in FIG. 8 show the mean tumor volume across all mice in a group. Because 8 mice were used per group, the line shown in FIG. 8 might not go to zero; however, there could still be individual animals that attained CR.

[1] = tested on: TACSTD2-positive cell lines Bx-PC-3, NCI-H87, NCI-H292, and MDA-MB-468; test: In vitro cytotoxicity, Cell Titer-Glo, 5 d; assay type: cell-based; conditions: 120 h, range over the four tested cell lines, read-out: IC50 concentrations
Experimental: The TACSTD2-positive cell lines, Bx-PC-3, […], NCI-H292, and MDA-MB-468 were obtained from the ATCC cell bank. The cells were maintained in RPMI 1640 or DMEM medium (Cellgro) supplemented with 10 or 20% fetal bovine serum (Invitrogen) and Glutamax (Invitrogen). 24 h prior to plating, cells were passaged to ensure log-phase growth. On the day of plating, 5000 cells/well were seeded onto 96-well plates in 100 μL normal growth medium supplemented with 10 IU penicillin and 10 μg/mL streptomycin (Cellgro). […] After 5 d, 100 μL/well of Cell Titer-Glo reagent (Promega) was added, and luminescence was measured using a Molecular Devices SpectraMax M5 plate reader. GraphPad Prism software was used for data analysis.

MDA-MB-468 cells = test: In vitro cytotoxicity, Cell Titer-Glo, 8 d; assay type: cell-based; conditions: Homo sapiens, 192 h
Experimental: Methods: The TACSTD2-positive cell line, MDA-MB-468 was obtained from the ATCC cell bank. The cells were maintained in DMEM medium supplemented with 10% fetal bovine serum (Invitrogen), 2× Glutamax (Invitrogen) and 1× antibiotic/antimycotic (Corning). On the day of plating, 1500 cells/well were seeded onto 96-well plates in 100 μL normal growth medium. Cells were treated at various concentrations with 20 μL of diluted analytes (sacituzumab compound 21 ADC or free belotecan payload), and the plates were incubated at 37° C. in an atmosphere of 5% CO2. After 8 d, 100 μL/well of Cell Titer-Glo reagent (Promega) was added, and luminescence was measured using a Molecular Devices SpectraMax M5 plate reader. GraphPad Prism software was used for data analysis.

[2] = cited from earlier work

With Trodelvy [reference compound] as the molecule, how does the “complete responses (CRs)” value (NCI-H292 xenograft model) read?
Its value is 1/8.

With `COc1cc2cc(c1Cl)N(C)C(=O)C[C@H](OC(=O)[C@H](C)N(C)C(C)=O)[C@]1(C)O[C@H]1[C@H](C)[C@@H]1C[C@@](O)(NC(=O)O1)[C@H](OC)/C=C/C=C(\C)C2` [free maytansine, maytansine] as the molecule, how does the IC50 [1] read?
The IC50 was 0.05 to 0.23 nM.

And the IC50 (MDA-MB-468 cells)?
Its IC50 is 0.77 nM.

B1: DS-1062: Daiichi Sankyo's TROP-2-targeted ADC (conjugate, chains of the INN, looked up)
VH: QVQLVQSGAEVKKPGASVKVSCKASGYTFTTAGMQWVRQAPGQGLEWMGWINTHSGVPKYAEDFKGRVTISADTSTSTAYLQLSSLKSEDTAVYYCARSGFGSSYWYFDVWGQGTLVTVSS
VL: DIQMTQSPSSLSASVGDRVTITCKASQDVSTAVAWYQQKPGKAPKLLIYSASYRYTGVPSRFSGSGSGTDFTLTISSLQPEDFAVYYCQQHYITPLTFGQGTKLEIK
modifications: deruxtecan payload
notes: Daiichi Sankyo's TROP-2-targeted ADC
Which intestinal toxicity ([2]; 10 mg/kg) does the source give for B1 here?
The intestinal toxicity was “toxicity findings in the intestines”.

What about the “safety signals in healthy tissues that express TROP-2” value ([2]; >10 mg/kg, skin, cornea, oral, esophageal, vaginal mucosa) of the same molecule?
The value was “key adverse safety signals (including necrosis)”.
